Source: patent US20220088016A1, “CANCER TREATMENT USING MULTI-TARGETED KINASE INHIBITOR IN COMBINATION OF PROTEIN KINASE BIOMARKERS” (ZHEJIANG CROWNMAB BIOTECH CO. LTD., priority 2019, published 2022)

Key:
Experiment in all cases: Kinase IC50 (Eurofins KinaseProfiler)
Format in all cases: biochemical
TYK2 (h) = target: T1, TYK2 (h) (Homo sapiens, UniProt P29597)
T1 construct: purchased Eurofins
Procedure: (§1) CBT-102 were tested against each of the selected kinases using the Eurofins standard KinaseProfder assays and following the relevant standard operating procedures. The required volume of the 50× stock of test compound (CBT-102) was added to the assay well, before a reaction mix containing the enzyme and substrate was added. The reaction was initiated by the addition of ATP at the selected concentration. There was no pre-incubation of the compound with the enzyme/substrate mix prior to ATP addition.
(§2) Data are handled using a custom-built in-house analysis software. Results are expressed as kinase activity remaining, as a percentage of the DMSO control. This is calculated using the following formula: […]
(§3) For IC50 determinations, data are analyzed using XLFit version 5.3 (ID Business Solutions).

ErbB2 (h) = target: T2, ErbB2 (h) (Homo sapiens, UniProt P04626)
T2 construct: purchased Eurofins (KinaseProfiler service)
T2 sequence (P04626 23-1255): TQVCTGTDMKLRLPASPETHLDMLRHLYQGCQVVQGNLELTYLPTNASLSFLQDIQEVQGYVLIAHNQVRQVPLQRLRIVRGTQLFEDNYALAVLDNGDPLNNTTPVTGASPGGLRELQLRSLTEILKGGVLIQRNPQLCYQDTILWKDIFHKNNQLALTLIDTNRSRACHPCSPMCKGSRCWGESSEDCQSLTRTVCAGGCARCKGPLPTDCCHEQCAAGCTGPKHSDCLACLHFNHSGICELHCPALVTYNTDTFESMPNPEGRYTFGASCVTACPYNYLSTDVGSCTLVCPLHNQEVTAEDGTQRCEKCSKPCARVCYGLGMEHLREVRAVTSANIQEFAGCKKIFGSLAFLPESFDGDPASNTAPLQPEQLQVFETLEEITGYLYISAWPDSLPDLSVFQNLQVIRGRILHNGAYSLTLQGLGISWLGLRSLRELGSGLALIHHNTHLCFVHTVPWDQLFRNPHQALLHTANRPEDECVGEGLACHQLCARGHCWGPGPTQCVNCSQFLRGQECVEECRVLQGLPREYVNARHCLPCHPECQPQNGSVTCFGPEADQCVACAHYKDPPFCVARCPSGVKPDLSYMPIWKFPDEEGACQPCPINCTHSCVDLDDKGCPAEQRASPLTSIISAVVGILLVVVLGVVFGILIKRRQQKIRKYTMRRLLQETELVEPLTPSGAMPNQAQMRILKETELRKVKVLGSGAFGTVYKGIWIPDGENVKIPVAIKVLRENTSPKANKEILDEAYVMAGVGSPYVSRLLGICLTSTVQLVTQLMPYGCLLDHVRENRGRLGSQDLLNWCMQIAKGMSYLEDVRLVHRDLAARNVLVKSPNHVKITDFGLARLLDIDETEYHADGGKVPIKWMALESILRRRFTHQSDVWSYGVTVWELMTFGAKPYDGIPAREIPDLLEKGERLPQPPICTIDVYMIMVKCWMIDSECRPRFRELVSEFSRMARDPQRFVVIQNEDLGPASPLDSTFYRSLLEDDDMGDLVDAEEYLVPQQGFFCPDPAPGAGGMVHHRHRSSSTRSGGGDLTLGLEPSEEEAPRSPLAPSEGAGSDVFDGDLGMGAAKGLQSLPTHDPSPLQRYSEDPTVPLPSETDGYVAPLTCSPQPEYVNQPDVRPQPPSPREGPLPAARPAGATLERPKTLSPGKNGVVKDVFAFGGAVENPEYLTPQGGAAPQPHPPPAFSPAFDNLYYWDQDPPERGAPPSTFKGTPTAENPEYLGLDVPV
Procedure: as §1, §2, §3

PTK5 (h) = target: T3, PTK5 (h) (Homo sapiens, UniProt P42685)
T3 construct: purchased Eurofins
Procedure: as §1, §2, §3

EphA1 (h) = target: T4, EphA1 (h) (Homo sapiens, UniProt P21709)
T4 construct: purchased Eurofins (KinaseProfiler service)
T4 sequence (P21709 26-976): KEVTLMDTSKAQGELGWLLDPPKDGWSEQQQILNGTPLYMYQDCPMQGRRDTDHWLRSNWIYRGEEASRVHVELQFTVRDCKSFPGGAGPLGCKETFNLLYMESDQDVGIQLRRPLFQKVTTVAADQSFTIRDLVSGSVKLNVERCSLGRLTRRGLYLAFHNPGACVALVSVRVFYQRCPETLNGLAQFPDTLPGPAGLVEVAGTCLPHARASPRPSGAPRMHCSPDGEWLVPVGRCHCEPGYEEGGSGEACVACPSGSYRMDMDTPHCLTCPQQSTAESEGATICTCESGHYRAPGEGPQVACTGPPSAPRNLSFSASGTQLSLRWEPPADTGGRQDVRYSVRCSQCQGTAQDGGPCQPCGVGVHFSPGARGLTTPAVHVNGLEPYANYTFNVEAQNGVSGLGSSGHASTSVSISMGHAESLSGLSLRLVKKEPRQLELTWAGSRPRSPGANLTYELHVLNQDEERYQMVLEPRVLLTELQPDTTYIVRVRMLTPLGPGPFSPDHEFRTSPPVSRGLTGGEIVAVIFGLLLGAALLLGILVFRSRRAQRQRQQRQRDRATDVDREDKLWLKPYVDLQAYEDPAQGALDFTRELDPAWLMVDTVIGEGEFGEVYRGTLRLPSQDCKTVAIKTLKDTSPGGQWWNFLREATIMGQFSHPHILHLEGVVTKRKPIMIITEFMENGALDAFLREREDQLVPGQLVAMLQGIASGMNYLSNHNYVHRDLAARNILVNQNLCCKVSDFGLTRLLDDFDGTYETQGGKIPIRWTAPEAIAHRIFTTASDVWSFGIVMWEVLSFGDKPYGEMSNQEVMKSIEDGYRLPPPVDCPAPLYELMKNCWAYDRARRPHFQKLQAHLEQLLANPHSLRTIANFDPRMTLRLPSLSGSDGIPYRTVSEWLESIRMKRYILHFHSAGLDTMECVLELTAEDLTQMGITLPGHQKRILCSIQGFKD
Procedure: as §1, §2, §3

Tie2 (h) = target: T5, Tie2 (h) (Homo sapiens, UniProt Q02763)
T5 construct: purchased Eurofins
Procedure: as §1, §2, §3

TNIK (h) = target: T6, TNIK (h) (Homo sapiens, UniProt Q9UKE5)
T6 construct: purchased Eurofins
Procedure: as §1, §2, §3

Aurora-A (h) = target: T7, Aurora-A (h) (Homo sapiens, UniProt O14965)
T7 construct: purchased Eurofins
T7 sequence (O14965 whole entry): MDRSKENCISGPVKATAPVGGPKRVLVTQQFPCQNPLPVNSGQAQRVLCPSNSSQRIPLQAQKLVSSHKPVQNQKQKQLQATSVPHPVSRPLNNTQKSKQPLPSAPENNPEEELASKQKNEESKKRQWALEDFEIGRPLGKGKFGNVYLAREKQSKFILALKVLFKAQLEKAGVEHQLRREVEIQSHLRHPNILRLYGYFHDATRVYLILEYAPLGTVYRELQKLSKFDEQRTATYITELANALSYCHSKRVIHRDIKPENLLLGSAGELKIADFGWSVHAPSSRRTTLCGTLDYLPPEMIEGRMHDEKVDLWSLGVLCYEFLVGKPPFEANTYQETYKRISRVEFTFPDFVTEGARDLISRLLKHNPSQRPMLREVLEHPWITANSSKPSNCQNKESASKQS
Procedure: as §1, §2, §3

EphB4 (h) = target: T8, EphB4 (h) (Homo sapiens, UniProt P54760)
T8 construct: purchased Eurofins (KinaseProfiler service)
Procedure: as §1, §2, §3

MAP4K5 (h) = target: T9, MAP4K5 (h) (Homo sapiens, UniProt Q9Y4K4)
T9 construct: purchased Eurofins (KinaseProfiler service)
Procedure: as §1, §2, §3

Flt4 (h) = target: T10, Flt4 (h) (Homo sapiens, UniProt P35916)
T10 construct: purchased Eurofins (KinaseProfiler service)
Procedure: as §1, §2, §3

SAPK4 (h) = target: T11, SAPK4 (h) (Homo sapiens, UniProt O15264)
T11 construct: purchased Eurofins
Procedure: as §1, §2, §3

cSRC (h) = target: T12, cSRC (h) (Homo sapiens, UniProt P12931)
T12 construct: purchased Eurofins (KinaseProfiler service)
T12 sequence (P12931 whole entry): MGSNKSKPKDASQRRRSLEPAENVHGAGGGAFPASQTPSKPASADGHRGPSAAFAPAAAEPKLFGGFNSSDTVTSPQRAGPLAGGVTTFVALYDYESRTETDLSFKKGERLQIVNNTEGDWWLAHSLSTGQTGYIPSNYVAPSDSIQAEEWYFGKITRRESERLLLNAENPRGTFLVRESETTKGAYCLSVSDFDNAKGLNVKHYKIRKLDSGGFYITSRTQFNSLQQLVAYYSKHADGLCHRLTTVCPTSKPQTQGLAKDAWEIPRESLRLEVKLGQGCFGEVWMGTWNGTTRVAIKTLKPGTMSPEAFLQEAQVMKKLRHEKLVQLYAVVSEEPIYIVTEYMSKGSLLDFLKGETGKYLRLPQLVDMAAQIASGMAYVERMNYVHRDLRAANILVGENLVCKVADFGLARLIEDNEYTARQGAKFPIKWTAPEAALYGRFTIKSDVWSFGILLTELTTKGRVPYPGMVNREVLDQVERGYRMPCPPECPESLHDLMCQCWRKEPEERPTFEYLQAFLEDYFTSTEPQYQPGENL
Procedure: as §1, §2, §3

cKit (D816V) (h) = target: T13, cKit (D816V) (h) (Homo sapiens, UniProt P10721, D816V)
T13 construct: purchased Eurofins (KinaseProfiler service)
Procedure: as §1, §2, §3

FGFR3 (h) = target: T14, FGFR3 (h) (Homo sapiens, UniProt P22607)
T14 construct: purchased Eurofins (KinaseProfiler service)
T14 sequence (P22607 23-806): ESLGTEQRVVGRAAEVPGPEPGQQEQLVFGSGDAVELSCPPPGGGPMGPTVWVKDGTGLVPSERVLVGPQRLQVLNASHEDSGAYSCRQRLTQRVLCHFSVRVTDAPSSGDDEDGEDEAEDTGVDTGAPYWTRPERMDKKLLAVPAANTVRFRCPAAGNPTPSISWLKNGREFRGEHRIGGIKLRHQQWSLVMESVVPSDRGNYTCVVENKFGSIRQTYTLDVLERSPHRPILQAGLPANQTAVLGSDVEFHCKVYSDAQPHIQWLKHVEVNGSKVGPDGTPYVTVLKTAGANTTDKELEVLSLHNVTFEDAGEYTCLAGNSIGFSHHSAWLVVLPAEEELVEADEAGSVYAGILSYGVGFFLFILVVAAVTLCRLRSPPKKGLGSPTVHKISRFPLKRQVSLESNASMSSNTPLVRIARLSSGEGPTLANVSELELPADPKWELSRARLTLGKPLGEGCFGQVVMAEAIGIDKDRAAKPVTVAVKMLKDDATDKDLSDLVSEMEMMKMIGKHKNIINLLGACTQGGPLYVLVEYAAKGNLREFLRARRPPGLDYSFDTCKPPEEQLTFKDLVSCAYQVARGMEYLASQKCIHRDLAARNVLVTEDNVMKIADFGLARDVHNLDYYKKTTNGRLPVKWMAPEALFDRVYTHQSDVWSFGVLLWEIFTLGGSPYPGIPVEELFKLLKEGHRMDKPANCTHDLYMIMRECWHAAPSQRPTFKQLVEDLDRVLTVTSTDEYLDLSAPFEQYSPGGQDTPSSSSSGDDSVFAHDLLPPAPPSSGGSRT
Procedure: as §1, §2, §3

PKBα (h) = target: T15, PKBα (h) (Homo sapiens, UniProt P31749)
T15 construct: purchased Eurofins
Procedure: as §1, §2, §3

DDR1 (h) = target: T16, DDR1 (h) (Homo sapiens, UniProt Q08345)
T16 construct: purchased Eurofins (KinaseProfiler service)
Procedure: as §1, §2, §3

MLK1 (h) = target: T17, MLK1 (h) (Homo sapiens, UniProt P80192)
T17 construct: purchased Eurofins (KinaseProfiler service)
Procedure: as §1, §2, §3

Wee1 (h) = target: T18, Wee1 (h) (Homo sapiens, UniProt P30291)
T18 construct: purchased Eurofins
Procedure: as §1, §2, §3

Fgr (h) = target: T19, Fgr (h) (Homo sapiens, UniProt P09769)
T19 construct: purchased Eurofins (KinaseProfiler service)
Procedure: as §1, §2, §3

Abl (h) = target: T20, Abl (h) (Homo sapiens, UniProt P00519)
T20 construct: purchased Eurofins
Procedure: as §1, §2, §3

IGF-1R (h) = target: T21, IGF-1R (h) (Homo sapiens, UniProt P08069)
T21 construct: purchased Eurofins (KinaseProfiler service)
Procedure: as §1, §2, §3

cKit (V654A) (h) = target: T22, cKit (V654A) (h) (Homo sapiens, UniProt P10721, V654A)
T22 construct: purchased Eurofins (KinaseProfiler service)
Procedure: as §1, §2, §3

CDK2/cyclinE (h) = target: T23, CDK2/cyclinE (h) (Homo sapiens, UniProt P24941)
T23 construct: purchased Eurofins (KinaseProfiler service)
Procedure: as §1, §2, §3

NEK2 (h) = target: T24, NEK2 (h) (Homo sapiens, UniProt P51955)
T24 construct: purchased Eurofins (KinaseProfiler service)
Procedure: as §1, §2, §3

Met (h) = target: T25, Met (h) (Homo sapiens, UniProt P08581)
T25 construct: purchased Eurofins (KinaseProfiler service)
Procedure: as §1, §2, §3

CDKL2 (h) = target: T26, CDKL2 (h) (Homo sapiens, UniProt Q92772)
T26 construct: purchased Eurofins (KinaseProfiler service)
T26 sequence (Q92772 whole entry): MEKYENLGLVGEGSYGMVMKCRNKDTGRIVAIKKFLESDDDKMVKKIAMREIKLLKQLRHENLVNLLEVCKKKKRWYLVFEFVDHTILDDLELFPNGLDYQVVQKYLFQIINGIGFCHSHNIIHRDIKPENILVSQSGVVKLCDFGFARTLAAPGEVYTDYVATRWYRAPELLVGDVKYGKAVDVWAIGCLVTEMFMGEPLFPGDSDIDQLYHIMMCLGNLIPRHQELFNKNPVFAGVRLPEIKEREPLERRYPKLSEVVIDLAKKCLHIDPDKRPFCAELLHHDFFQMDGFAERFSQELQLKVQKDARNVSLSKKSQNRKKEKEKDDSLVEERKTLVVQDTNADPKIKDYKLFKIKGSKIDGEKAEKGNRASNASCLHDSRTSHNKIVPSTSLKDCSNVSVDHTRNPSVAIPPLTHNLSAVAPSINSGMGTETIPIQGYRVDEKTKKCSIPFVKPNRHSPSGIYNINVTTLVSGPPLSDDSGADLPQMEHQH
Procedure: as §1, §2, §3

c-RAF (h) = target: T27, c-RAF (h) (Homo sapiens, UniProt P04049)
T27 construct: purchased Eurofins (KinaseProfiler service)
Procedure: as §1, §2, §3

PKA (h) = target: T28, PKA (h) (Homo sapiens, UniProt P17612)
T28 construct: purchased Eurofins
Procedure: as §1, §2, §3

EphB2 (h) = target: T29, EphB2 (h) (Homo sapiens, UniProt P29323)
T29 construct: purchased Eurofins (KinaseProfiler service)
Procedure: as §1, §2, §3

cKit (V560G) (h) = target: T30, cKit (V560G) (h) (Homo sapiens, UniProt P10721, V560G)
T30 construct: purchased Eurofins (KinaseProfiler service)
Procedure: as §1, §2, §3

Lck (h) = target: T31, Lck (h) (Homo sapiens, UniProt P06239)
T31 construct: purchased Eurofins (KinaseProfiler service)
Procedure: as §1, §2, §3

ErbB4 (h) = target: T32, ErbB4 (h) (Homo sapiens, UniProt Q15303)
T32 construct: purchased Eurofins (KinaseProfiler service)
Procedure: as §1, §2, §3

IRAK4 (h) = target: T33, IRAK4 (h) (Homo sapiens, UniProt Q9NWZ3)
T33 construct: purchased Eurofins (KinaseProfiler service)
Procedure: as §1, §2, §3

EphB3 (h) = target: T34, EphB3 (h) (Homo sapiens, UniProt P54753)
T34 construct: purchased Eurofins (KinaseProfiler service)
Procedure: as §1, §2, §3

CDK6/cyclinD3 (h) = target: T35, CDK6/cyclinD3 (h) (Homo sapiens, UniProt Q00534)
T35 construct: purchased Eurofins (KinaseProfiler service)
T35 sequence (Q00534 whole entry): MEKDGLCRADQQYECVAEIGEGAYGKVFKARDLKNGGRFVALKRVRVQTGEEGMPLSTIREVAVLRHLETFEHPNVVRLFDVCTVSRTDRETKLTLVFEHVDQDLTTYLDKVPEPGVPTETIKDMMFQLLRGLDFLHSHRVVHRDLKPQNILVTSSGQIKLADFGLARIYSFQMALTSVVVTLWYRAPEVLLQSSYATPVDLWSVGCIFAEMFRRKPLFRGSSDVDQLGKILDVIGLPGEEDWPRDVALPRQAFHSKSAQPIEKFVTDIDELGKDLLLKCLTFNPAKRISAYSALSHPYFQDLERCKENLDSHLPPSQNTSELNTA
T35 sequence (P30281 whole entry partner): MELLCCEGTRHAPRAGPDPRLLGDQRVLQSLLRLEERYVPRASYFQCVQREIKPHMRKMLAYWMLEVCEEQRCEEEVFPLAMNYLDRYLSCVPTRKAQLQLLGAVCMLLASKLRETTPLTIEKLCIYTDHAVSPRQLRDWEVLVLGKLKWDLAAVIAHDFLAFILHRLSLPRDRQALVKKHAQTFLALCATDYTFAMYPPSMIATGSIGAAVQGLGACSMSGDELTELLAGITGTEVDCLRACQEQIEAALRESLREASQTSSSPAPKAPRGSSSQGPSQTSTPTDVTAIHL
Procedure: as §1, §2, §3

## Cc1cc(Oc2cc(NC(=O)C3CC3)ncn2)ccc1NC(=O)Nc1ccc(Cl)c(C(F)(F)F)c1 [CBT-102]
TYK2 (h)
  IC50: > 10000 nM
ErbB2 (h)
  IC50: > 10000 nM
PTK5 (h)
  IC50: 52 nM
EphA1 (h)
  IC50: 1110 nM
Tie2 (h)
  IC50: 242 nM
TNIK (h)
  IC50: 113 nM
Aurora-A (h)
  IC50: 1770 nM
EphB4 (h)
  IC50: 486 nM
MAP4K5 (h)
  IC50: 24 nM
Flt4 (h)
  IC50: 8 nM
SAPK4 (h)
  IC50: 228 nM
cSRC (h)
  IC50: 2500 nM
cKit (D816V) (h)
  IC50: > 10000 nM
FGFR3 (h)
  IC50: > 10000 nM
PKBα (h)
  IC50: > 10000 nM
DDR1 (h)
  IC50: 34 nM
MLK1 (h)
  IC50: 6060 nM
Wee1 (h)
  IC50: > 10000 nM
Fgr (h)
  IC50: 1430 nM
Abl (h)
  IC50: 1830 nM
IGF-1R (h)
  IC50: > 10000 nM
cKit (V654A) (h)
  IC50: 278 nM
CDK2/cyclinE (h)
  IC50: > 10000 nM
NEK2 (h)
  IC50: > 10000 nM
Met (h)
  IC50: 2860 nM
CDKL2 (h)
  IC50: 37 nM
c-RAF (h)
  IC50: 31 nM
PKA (h)
  IC50: > 10000 nM
EphB2 (h)
  IC50: 418 nM
cKit (V560G) (h)
  IC50: 38 nM
Lck (h)
  IC50: 1340 nM
ErbB4 (h)
  IC50: > 10000 nM
IRAK4 (h)
  IC50: > 10000 nM
EphB3 (h)
  IC50: > 10000 nM
CDK6/cyclinD3 (h)
  IC50: > 10000 nM
